The target in test [1] is T1, LK35.2-hPD-L1 cells / PE-labeled PD-1-Ig (Homo sapiens, UniProt Q9NZQ7).
T1 construct: expressed in transfected cells; host or cells: LK35.2 mouse B cell line
Nature of the test: LK35.2-hPD-L1 cell binding high-content screening assay. Format: cell-based. As to conditions: cell binding assay, cell line not given; cluster symbol; read-out: CBA IC50 cluster. The procedure, abridged:
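Mouse LK35.2 B cells stably overexpressing human PD-L1 were cultured overnight in RPMI with 10% FCS, then given compound and PE-labeled human PD-1-Ig (1 nM final) for 1 h at 37 °C. After three dPBS washes, bound fluorescence was quantified by high-content imaging.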

The next test addresses T2, Human PD-L1/PD-1 (Homo sapiens, UniProt Q9NZQ7).
T2 construct: made in house; host or cells: HEK293T
In words: HTRF PD-1-Ig/PD-L1-His binding assay (human PD-L1). The conditions noted are these: cluster symbol; read-out: HTRF IC50 cluster. The essentials:
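The time-resolved fluorescence signal comes from Eu-cryptate anti-Ig (1 nM) and APC anti-His (20 nM) antibodies bound to a PD-1-Ig/PD-L1-His complex. Both partners lack transmembrane regions.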
On the technique in general: In TR-FRET formats the signal depends on donor and acceptor labels being close together.

Positions of bridges follow the written chain, without caps; N, C: chain ends. Non-standard residues stand in square brackets, D forms with d. Residues, ends and D or L forms follow the SMILES beside them. ξ: configuration not given here. Phe(4-CH2NH2) = NCc1ccc(C[C@H](N)C(=O)O)cc1; 1Nal = N[C@@H](Cc1cccc2ccccc12)C(=O)O; ξPhe(βξ-Me) = CC(c1ccccc1)C(N)C(=O)O; NMeF = CN[C@@H](Cc1ccccc1)C(=O)O; NMeNle = CCCC[C@H](NC)C(=O)O; Sar = CNCC(=O)O Some results are limits rather than exact numbers.

The IC50 is the midpoint of a concentration-inhibition curve.

T1 sequence (Q9NZQ7 19-290): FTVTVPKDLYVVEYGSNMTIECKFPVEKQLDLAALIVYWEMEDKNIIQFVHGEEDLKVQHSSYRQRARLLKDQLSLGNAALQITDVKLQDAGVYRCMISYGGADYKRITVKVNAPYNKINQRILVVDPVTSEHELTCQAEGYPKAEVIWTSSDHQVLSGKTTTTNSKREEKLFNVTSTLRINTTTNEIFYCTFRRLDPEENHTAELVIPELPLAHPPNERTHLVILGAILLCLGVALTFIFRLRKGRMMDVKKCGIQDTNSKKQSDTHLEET
T2 sequence (Q9NZQ7 with tags, fused parts or gaps): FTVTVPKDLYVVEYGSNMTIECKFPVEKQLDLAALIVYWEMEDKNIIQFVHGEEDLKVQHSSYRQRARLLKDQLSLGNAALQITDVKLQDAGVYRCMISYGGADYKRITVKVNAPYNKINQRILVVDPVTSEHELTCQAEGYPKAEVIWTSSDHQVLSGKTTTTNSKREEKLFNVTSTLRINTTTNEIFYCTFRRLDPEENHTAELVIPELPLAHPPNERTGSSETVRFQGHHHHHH

For `CCCC[C@H]1C(=O)N(C)CC(=O)N[C@@H](CC(=O)O)C(=O)N[C@@H](C(C)C)C(=O)N(C)[C@@H](Cc2ccccc2)C(=O)N[C@@H](Cc2ccc(O)cc2)C(=O)N(C)CC(=O)N[C@@H](Cc2ccc(CN)cc2)C(=O)N[C@@H](Cc2ccc(O)cc2)C(=O)N[C@@H](CC(C)C)C(=O)N[C@H](C(=O)NCC(N)=O)CSCC(=O)N[C@@H](Cc2ccccc2)C(=O)N(C)[C@@H](Cc2ccccc2)C(=O)N1C` [Example 3513] ({CH2CO}-F[NMeF][NMeNle][Sar]DV[NMeF]Y[Sar][Phe(4-CH2NH2)]YLCG-NH2; thioether N-13), the results for the IC50 (in test [1]; on Human PD-L1/PD-1) were above 74.3 nM and above 30.5 nM, respectively.

With `CCCC[C@H]1C(=O)N(C)CC(=O)N[C@@H](CC(=O)O)C(=O)N[C@@H](C(C)C)C(=O)N(C)[C@@H](Cc2ccccc2)C(=O)N[C@@H](Cc2ccc(O)cc2)C(=O)N(C)CC(=O)N[C@@H](Cc2c[nH]c3ccccc23)C(=O)N[C@@H](Cc2ccc(CN)cc2)C(=O)N[C@@H](CC(C)C)C(=O)N[C@H](C(=O)NCC(N)=O)CSCC(=O)N[C@@H](Cc2ccccc2)C(=O)N(C)[C@@H](Cc2ccccc2)C(=O)N1C` [Example 3514] ({CH2CO}-F[NMeF][NMeNle][Sar]DV[NMeF]Y[Sar]W[Phe(4-CH2NH2)]LCG-NH2; thioether N-13), the 50% inhibitory concentration (IC50) in test [1] was 4.78 to 72.9 nM; at Human PD-L1/PD-1, 6.76 to 30.3 nM.

`CCCC[C@H]1C(=O)N(C)CC(=O)N[C@@H](CC(=O)O)C(=O)N[C@@H](C(C)C)C(=O)N(C)[C@@H](Cc2ccccc2)C(=O)N[C@@H](Cc2ccc(O)cc2)C(=O)N(C)CC(=O)N[C@@H](Cc2cccc3ccccc23)C(=O)N[C@@H](Cc2ccc(O)cc2)C(=O)N[C@@H](CC(C)C)C(=O)N[C@H](C(=O)NCC(N)=O)CSCC(=O)N[C@@H](Cc2ccccc2)C(=O)N(C)[C@@H](Cc2ccccc2)C(=O)N1C` [Example 3515] ({CH2CO}-F[NMeF][NMeNle][Sar]DV[NMeF]Y[Sar][1Nal]YLCG-NH2; thioether N-13): the IC50 was in the range of 4.78 to 72.9 nM in test [1] and 6.76 to 30.3 nM at Human PD-L1/PD-1.

For `CCCC[C@H]1C(=O)N(C)CC(=O)N[C@@H](CC(=O)O)C(=O)N[C@@H](C(C)C)C(=O)N(C)[C@@H](Cc2ccccc2)C(=O)N[C@@H](Cc2ccc(O)cc2)C(=O)N(C)CC(=O)N[C@@H](Cc2c[nH]c3ccccc23)C(=O)N[C@@H](Cc2ccc(O)cc2)C(=O)N[C@@H](CC(C)C)C(=O)N[C@H](C(=O)NCC(N)=O)CSCC(=O)NC(C(C)c2ccccc2)C(=O)N(C)[C@@H](Cc2ccccc2)C(=O)N1C` (stereo partly drawn) [Example 3516] ({CH2CO}-[ξPhe(βξ-Me)][NMeF][NMeNle][Sar]DV[NMeF]Y[Sar]WYLCG-NH2; thioether N-13), the concentration for half-maximal inhibition (IC50) in test [1] was above 74.3 nM; at Human PD-L1/PD-1 it was above 30.5 nM.

In the case of `CCCC[C@H]1C(=O)N(C)CC(=O)N[C@@H](CC(=O)O)C(=O)N[C@@H](C(C)C)C(=O)N(C)[C@@H](Cc2ccccc2)C(=O)N[C@@H](Cc2ccc(O)cc2)C(=O)N(C)CC(=O)N[C@@H](Cc2c[nH]c3ccccc23)C(=O)N[C@@H](Cc2ccc(O)cc2)C(=O)N[C@@H](CC(C)C)C(=O)N[C@H](C(=O)NCC(=O)O)CSCC(=O)N[C@@H](Cc2ccccc2)C(=O)N(C)[C@@H](Cc2ccccc2)C(=O)N1C` [Example 3517] (HELM PEPTIDE1{[O=C(C[*:3])[*:2]].F.[meF].[CCCC[C@@H](C(=O)[*:2])N(C)[*:1]].[Sar].D.V.[meF].Y.[Sar].W.Y.L.C.G}$PEPTIDE1,PEPTIDE1,1:R3-14:R3$$$V2.0), the IC50 in test [1] was above 74.3 nM; at Human PD-L1/PD-1 it was above 30.5 nM.

For the compound `CCCC[C@H]1C(=O)N(C)CC(=O)N[C@@H](CC(=O)O)C(=O)N[C@@H](C(C)C)C(=O)N(C)[C@@H](Cc2ccccc2)C(=O)N[C@@H](Cc2ccc(O)cc2)C(=O)N(C)CC(=O)N[C@@H](Cc2c[nH]c3ccccc23)C(=O)N[C@@H](Cc2ccc(O)cc2)C(=O)N[C@@H](Cc2ccc(O)cc2)C(=O)N[C@H](C(=O)NCC(N)=O)CSCC(=O)N[C@@H](Cc2ccccc2)C(=O)N(C)[C@@H](Cc2ccccc2)C(=O)N1C` [Example 3519] (HELM PEPTIDE1{[O=C(C[*:3])[*:2]].F.[meF].[CCCC[C@@H](C(=O)[*:2])N(C)[*:1]].[Sar].D.V.[meF].Y.[Sar].W.Y.Y.C.G.[am]}$PEPTIDE1,PEPTIDE1,1:R3-14:R3$$$V2.0), the half-maximal inhibitory concentration (IC50) in test [1] lay within 4.78 to 72.9 nM; on Human PD-L1/PD-1 it was 6.76 to 30.3 nM.

These data come from patent publication US9850283B2, “Macrocyclic inhibitors of the PD-1/PD-L1 and CD80(B7-1)/PD-L1 protein/protein interactions” (BRISTOL-MYERS SQUIBB COMPANY, priority 2013, dated 2017).
